Assay: Stability of pure lycopene isomers in n-hexane during storage at room temperature
Format: physicochemical
Conditions: for concentration (% of total isomers) 5-Z / concentration (% of total isomers) all E / concentration (% of total isomers) x-Z / concentration (% of total isomers) 9-Z / concentration (% of total isomers) 13-Z: n-hexane, room temperature, absence of light
Experimental: Pure 5-Z, 9-Z, 13-Z and all-E lycopene were isolated from isomerised tomato oleoresin (submitted to 1 hour heating), by collecting the fractions containing the corresponding peaks after HPLC separation (see below the experimental conditions). Peaks were collected during two consecutive HPLC runs and the corresponding fractions were pooled.
Lycopene isomer profiles were determined by normal phase HPLC according to the method described by Schierle et al. (Schierle, J., Bretzel, W., Bühler, I., Faccin, N., Hess, D., Steiner, K., Schuep, W. (1997). Food. Chem. 59: 459). Samples of isomerized oleoresins were dissolved in n-hexane containing 50 ppm BHT and spun at maximum speed in an Eppendorf Lab centrifuge. The resulting supernatants were immediately analyzed by HPLC. The HPLC system used was a 1100 series Hewlett-Packard model equipped with an ultraviolet-visible photodiode array detector. Data were simultaneously acquired at 470 nm, 464 nm, 346 nm and 294 nm. Samples (10 μL) were separated using a combination of three Nucleosil 300-5 columns (4 mm internal diameter×250 mm length, Macherey-Nagel). […] Flow rate was 0.8 mL/min. Lycopene Z-isomers were identified according to literature data.
Amounts of lycopene isomers were calculated based on surface areas of the HPLC peaks using the same extinction coefficient as the all-E lycopene. Therefore, the lycopene concentration in products containing Z-isomers is slightly underestimated since it is recognized that the extinction coefficients of Z-isomers are lower than that of the all-E isomer.
Stability of lycopene isomers was investigated both in n-hexane and in a tomato oleoresin isomerized by 4 hour heating in ethyl acetate. For this purpose, pure lycopene isomers were stored for 33 days in n-hexane at room temperature and in the absence of light, and the isomerized tomato oleoresin was kept for 55 days at room temperature in the absence of light. Total lycopene concentration and lycopene isomer profiles were measured at various time intervals during the storage.

## CC(C)=CCC\C(C)=C/C=C/C(C)=C/C=C/C(C)=C/C=C/C=C(C)/C=C/C=C(C)/C=C/C=C(\C)CCC=C(C)C [5-Z lycopene]
0 days
  concentration (% of total isomers) 5-Z: 95.5 % of total isomers
  concentration (% of total isomers) all E: 1.1 % of total isomers
  concentration (% of total isomers) x-Z: 3.4 % of total isomers
1 day
  concentration (% of total isomers) 5-Z: 84.3 % of total isomers
  concentration (% of total isomers) all E: 2.2 % of total isomers
  concentration (% of total isomers) x-Z: 13.5 % of total isomers
2 days
  concentration (% of total isomers) 5-Z: 76.9 % of total isomers
  concentration (% of total isomers) all E: 2.4 % of total isomers
  concentration (% of total isomers) x-Z: 20.6 % of total isomers
5 days
  concentration (% of total isomers) 5-Z: 68.4 % of total isomers
  concentration (% of total isomers) all E: 3.9 % of total isomers
  concentration (% of total isomers) x-Z: 27.7 % of total isomers
12 days
  concentration (% of total isomers) 5-Z: 65.3 % of total isomers
  concentration (% of total isomers) 9-Z: 0.7 % of total isomers
  concentration (% of total isomers) 13-Z: 1.7 % of total isomers
  concentration (% of total isomers) all E: 5.6 % of total isomers
  concentration (% of total isomers) x-Z: 26.7 % of total isomers
33 days
  concentration (% of total isomers) 5-Z: 53.5 % of total isomers
  concentration (% of total isomers) 9-Z: 2.3 % of total isomers
  concentration (% of total isomers) 13-Z: 2.8 % of total isomers
  concentration (% of total isomers) all E: 10.7 % of total isomers
  concentration (% of total isomers) x-Z: 30.7 % of total isomers

## CC(C)=CCC/C(C)=C/C=C/C(C)=C\C=C\C(C)=C\C=C\C=C(C)\C=C\C=C(C)\C=C\C=C(/C)CCC=C(C)C [9-Z lycopene]
0 days
  concentration (% of total isomers) 5-Z: 1.8 % of total isomers
  concentration (% of total isomers) 9-Z: 93.3 % of total isomers
  concentration (% of total isomers) 13-Z: 0.6 % of total isomers
  concentration (% of total isomers) all E: 4.4 % of total isomers
  concentration (% of total isomers) x-Z: 0 % of total isomers
1 day
  concentration (% of total isomers) 5-Z: 2.1 % of total isomers
  concentration (% of total isomers) 9-Z: 87.1 % of total isomers
  concentration (% of total isomers) 13-Z: 2.3 % of total isomers
  concentration (% of total isomers) all E: 5.8 % of total isomers
  concentration (% of total isomers) x-Z: 2.8 % of total isomers
2 days
  concentration (% of total isomers) 5-Z: 11.6 % of total isomers
  concentration (% of total isomers) 9-Z: 83.5 % of total isomers
  concentration (% of total isomers) 13-Z: 3.1 % of total isomers
  concentration (% of total isomers) all E: 6.0 % of total isomers
  concentration (% of total isomers) x-Z: 5.9 % of total isomers
5 days
  concentration (% of total isomers) 5-Z: 1.5 % of total isomers
  concentration (% of total isomers) 9-Z: 79.2 % of total isomers
  concentration (% of total isomers) 13-Z: 5.2 % of total isomers
  concentration (% of total isomers) all E: 5.6 % of total isomers
  concentration (% of total isomers) x-Z: 8.6 % of total isomers
12 days
  concentration (% of total isomers) 5-Z: 2.3 % of total isomers
  concentration (% of total isomers) 9-Z: 66.5 % of total isomers
  concentration (% of total isomers) 13-Z: 8.2 % of total isomers
  concentration (% of total isomers) all E: 7.0 % of total isomers
  concentration (% of total isomers) x-Z: 15.9 % of total isomers
33 days
  concentration (% of total isomers) 5-Z: 4.1 % of total isomers
  concentration (% of total isomers) 9-Z: 56.0 % of total isomers
  concentration (% of total isomers) 13-Z: 10.5 % of total isomers
  concentration (% of total isomers) all E: 9.8 % of total isomers
  concentration (% of total isomers) x-Z: 19.7 % of total isomers

## CC(C)=CCC/C(C)=C/C=C/C(C)=C/C=C/C(C)=C\C=C\C=C(C)\C=C\C=C(C)\C=C\C=C(/C)CCC=C(C)C [13-Z lycopene]
After 33 day storage in n-hexane at room temperature in the absence of light
  fraction of the isomer transformed / converted into other isomers: more than 80%
0 days
  concentration (% of total isomers) 5-Z: 0 % of total isomers
  concentration (% of total isomers) 9-Z: 0 % of total isomers
  concentration (% of total isomers) 13-Z: 96.6 % of total isomers
  concentration (% of total isomers) all E: 2.4 % of total isomers
  concentration (% of total isomers) x-Z: 1.0 % of total isomers
1 day
  concentration (% of total isomers) 5-Z: 0 % of total isomers
  concentration (% of total isomers) 9-Z: 0.4 % of total isomers
  concentration (% of total isomers) 13-Z: 57.0 % of total isomers
  concentration (% of total isomers) all E: 42.6 % of total isomers
  concentration (% of total isomers) x-Z: 0 % of total isomers
2 days
  concentration (% of total isomers) 5-Z: 0 % of total isomers
  concentration (% of total isomers) 9-Z: 0 % of total isomers
  concentration (% of total isomers) 13-Z: 38.7 % of total isomers
  concentration (% of total isomers) all E: 59.8 % of total isomers
  concentration (% of total isomers) x-Z: 1.5 % of total isomers
5 days
  concentration (% of total isomers) 5-Z: 1.9 % of total isomers
  concentration (% of total isomers) 9-Z: 1.5 % of total isomers
  concentration (% of total isomers) 13-Z: 23.4 % of total isomers
  concentration (% of total isomers) all E: 68.9 % of total isomers
  concentration (% of total isomers) x-Z: 4.3 % of total isomers
12 days
  concentration (% of total isomers) 5-Z: 5.3 % of total isomers
  concentration (% of total isomers) 9-Z: 2.6 % of total isomers
  concentration (% of total isomers) 13-Z: 20.8 % of total isomers
  concentration (% of total isomers) all E: 65.5 % of total isomers
  concentration (% of total isomers) x-Z: 5.8 % of total isomers
33 days
  concentration (% of total isomers) 5-Z: 11.7 % of total isomers
  concentration (% of total isomers) 9-Z: 4.2 % of total isomers
  concentration (% of total isomers) 13-Z: 16.9 % of total isomers
  concentration (% of total isomers) all E: 57.0 % of total isomers
  concentration (% of total isomers) x-Z: 10.2 % of total isomers

## CC(C)=CCC/C(C)=C/C=C/C(C)=C/C=C/C(C)=C/C=C/C=C(C)/C=C/C=C(C)/C=C/C=C(\C)CCC=C(C)C [all-E lycopene]
0 days
  concentration (% of total isomers) 5-Z: 0.5 % of total isomers
  concentration (% of total isomers) 9-Z: 0.5 % of total isomers
  concentration (% of total isomers) 13-Z: 1.4 % of total isomers
  concentration (% of total isomers) all E: 97.6 % of total isomers
  concentration (% of total isomers) x-Z: 0.1 % of total isomers
1 day
  concentration (% of total isomers) 5-Z: 1.2 % of total isomers
  concentration (% of total isomers) 9-Z: 1.2 % of total isomers
  concentration (% of total isomers) 13-Z: 10.1 % of total isomers
  concentration (% of total isomers) all E: 86.0 % of total isomers
  concentration (% of total isomers) x-Z: 1.5 % of total isomers
2 days
  concentration (% of total isomers) 5-Z: 2.6 % of total isomers
  concentration (% of total isomers) 9-Z: 1.1 % of total isomers
  concentration (% of total isomers) 13-Z: 15.0 % of total isomers
  concentration (% of total isomers) all E: 78.4 % of total isomers
  concentration (% of total isomers) x-Z: 3.0 % of total isomers
5 days
  concentration (% of total isomers) 5-Z: 3.8 % of total isomers
  concentration (% of total isomers) 9-Z: 2.2 % of total isomers
  concentration (% of total isomers) 13-Z: 19.6 % of total isomers
  concentration (% of total isomers) all E: 69.3 % of total isomers
  concentration (% of total isomers) x-Z: 5.1 % of total isomers
12 days
  concentration (% of total isomers) 5-Z: 6.4 % of total isomers
  concentration (% of total isomers) 9-Z: 2.0 % of total isomers
  concentration (% of total isomers) 13-Z: 18.2 % of total isomers
  concentration (% of total isomers) all E: 67.8 % of total isomers
  concentration (% of total isomers) x-Z: 5.6 % of total isomers
33 days
  concentration (% of total isomers) 5-Z: 13.4 % of total isomers
  concentration (% of total isomers) 9-Z: 3.8 % of total isomers
  concentration (% of total isomers) 13-Z: 15.7 % of total isomers
  concentration (% of total isomers) all E: 58.7 % of total isomers
  concentration (% of total isomers) x-Z: 8.4 % of total isomers

Reference: patent US8216619B2, “Stable and bioavailable compositions of isomers of carotenoids for skin and hair” (Indena S.p.A., priority 2006, dated 2012)
